Patent publication US10526352B2, “Tricyclic benzoxaborole compounds and uses thereof” (GlaxoSmithKline Intellectual Property (No.2) Limited, priority 2013, dated 2020)
pIC50: −log10 of the molar value. ≈ marks a conversion by molar mass, not a printed value. Like-named read-outs stand apart in the source and are kept apart here.

Tests used:
[1] = system: M. tuberculosis standard strain Mtb H37Rv; experiment: MIC determination against mycobacteria (resazurin, Middlebrook 7H9); assay type: cell-based, Mycobacterium tuberculosis
[2] = system: M. tuberculosis clinical isolates; experiment: MIC against clinical strains (BACTEC MGIT 960 System); assay type: cell-based; conditions: Mycobacterium tuberculosis
E. coli K12 tolC::Tn10 = experiment: General antimicrobial activity assay (CLSI broth microdilution); assay type: cell-based, Escherichia coli
Method: (§1) Whole-cell antimicrobial activity was determined by broth microdilution using the Clinical and Laboratory Standards Institute (CLSI) recommended procedure, Document M7-A7, “Methods for Dilution Susceptibility Tests for Bacteria that Grow Aerobically”.

E. coli K12 = experiment: as above; assay type: cell-based, Escherichia coli
Method: as §1

A. baumannii ATCC 17978 = experiment: as above; assay type: cell-based, Acinetobacter baumannii
Method: as §1

P. aeruginosa PA01 = experiment: as above; assay type: cell-based, Pseudomonas aeruginosa
Method: as §1

Mtb LeuRS = Mtb LeuRS (Mycobacterium tuberculosis, UniProt P9WFV1); experiment: biochemical; parameters: species or system M. tuberculosis
Human cyto LeuRS = Human cyto LeuRS (Homo sapiens, UniProt Q9P2J5); experiment: LeuRS aminoacylation assay, IC50 determination; assay type: biochemical
[3] = Mycobacterium tuberculosis, H37RV; read-out: Mtb H37Rv MIC (B)

Human cyto LeuRS, sequence (Q9P2J5 whole entry): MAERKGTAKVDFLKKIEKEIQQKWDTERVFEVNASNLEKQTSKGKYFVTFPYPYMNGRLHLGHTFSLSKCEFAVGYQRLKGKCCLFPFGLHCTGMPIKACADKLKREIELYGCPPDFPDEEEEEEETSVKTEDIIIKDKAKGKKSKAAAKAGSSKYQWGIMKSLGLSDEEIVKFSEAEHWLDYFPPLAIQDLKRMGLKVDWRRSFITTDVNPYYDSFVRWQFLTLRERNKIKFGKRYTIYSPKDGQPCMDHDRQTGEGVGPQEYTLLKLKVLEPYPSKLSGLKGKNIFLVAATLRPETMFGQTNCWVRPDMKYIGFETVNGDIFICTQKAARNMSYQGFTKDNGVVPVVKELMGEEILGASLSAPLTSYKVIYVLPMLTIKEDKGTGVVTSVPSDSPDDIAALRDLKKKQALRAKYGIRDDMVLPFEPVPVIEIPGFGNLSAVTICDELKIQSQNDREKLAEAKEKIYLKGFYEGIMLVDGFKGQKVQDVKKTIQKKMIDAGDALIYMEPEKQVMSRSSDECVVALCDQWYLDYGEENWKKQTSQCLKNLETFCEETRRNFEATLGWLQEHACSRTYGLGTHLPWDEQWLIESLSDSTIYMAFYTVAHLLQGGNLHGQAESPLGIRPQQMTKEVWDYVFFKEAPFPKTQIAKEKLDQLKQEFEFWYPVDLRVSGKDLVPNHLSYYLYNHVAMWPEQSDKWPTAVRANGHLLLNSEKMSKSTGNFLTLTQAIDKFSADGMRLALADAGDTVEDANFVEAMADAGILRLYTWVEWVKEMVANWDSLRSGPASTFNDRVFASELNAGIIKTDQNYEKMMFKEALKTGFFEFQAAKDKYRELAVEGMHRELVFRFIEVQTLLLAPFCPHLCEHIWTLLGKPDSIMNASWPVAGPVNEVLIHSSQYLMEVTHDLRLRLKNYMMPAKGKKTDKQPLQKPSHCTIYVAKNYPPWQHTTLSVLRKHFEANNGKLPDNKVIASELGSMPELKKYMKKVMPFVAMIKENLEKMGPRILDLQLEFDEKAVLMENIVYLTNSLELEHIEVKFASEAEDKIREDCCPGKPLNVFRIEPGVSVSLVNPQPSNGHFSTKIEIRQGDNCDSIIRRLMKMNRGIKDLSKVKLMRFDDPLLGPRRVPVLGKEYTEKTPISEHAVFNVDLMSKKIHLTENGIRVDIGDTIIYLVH
Mtb LeuRS, sequence (P9WFV1 whole entry): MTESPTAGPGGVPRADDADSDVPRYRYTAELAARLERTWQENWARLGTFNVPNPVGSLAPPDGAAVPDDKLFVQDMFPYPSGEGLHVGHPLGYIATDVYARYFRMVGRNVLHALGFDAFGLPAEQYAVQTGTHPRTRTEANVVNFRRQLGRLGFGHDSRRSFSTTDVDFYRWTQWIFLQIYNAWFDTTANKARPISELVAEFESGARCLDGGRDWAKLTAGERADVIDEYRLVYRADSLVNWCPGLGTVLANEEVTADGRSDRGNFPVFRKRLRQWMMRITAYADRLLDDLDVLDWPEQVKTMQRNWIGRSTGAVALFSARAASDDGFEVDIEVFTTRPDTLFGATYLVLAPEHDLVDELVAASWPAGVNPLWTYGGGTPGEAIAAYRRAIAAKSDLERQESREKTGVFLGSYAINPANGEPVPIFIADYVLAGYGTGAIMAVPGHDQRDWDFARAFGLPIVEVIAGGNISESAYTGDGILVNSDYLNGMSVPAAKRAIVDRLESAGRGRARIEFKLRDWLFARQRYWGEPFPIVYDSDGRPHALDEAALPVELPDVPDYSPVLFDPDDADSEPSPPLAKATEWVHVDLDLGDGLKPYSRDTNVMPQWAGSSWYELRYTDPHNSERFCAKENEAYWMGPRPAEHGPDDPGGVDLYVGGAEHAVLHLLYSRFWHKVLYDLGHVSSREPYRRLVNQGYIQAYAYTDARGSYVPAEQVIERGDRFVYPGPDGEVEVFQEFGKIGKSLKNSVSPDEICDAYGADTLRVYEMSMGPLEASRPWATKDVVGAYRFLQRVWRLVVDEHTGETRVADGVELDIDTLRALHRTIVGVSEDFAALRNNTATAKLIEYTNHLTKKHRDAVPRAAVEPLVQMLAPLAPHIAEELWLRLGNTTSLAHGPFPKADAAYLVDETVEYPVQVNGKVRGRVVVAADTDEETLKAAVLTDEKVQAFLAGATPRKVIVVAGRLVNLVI

## Cl.NC[C@H]1OB2OCCOc3ccc(Cl)c1c32 [Example 4, (S)-(3-chloro-7,8-dihydro-2H-1,6,9-trioxa-9a-borabenzo[cd]azulen-2-yl)methanamine hydrochloride]
[1]; Mycobacterium tuberculosis, H37RV, read-out: Mtb H37Rv MIC (B)
  MIC: < 0.1 µM
[1]; hydrochloride; read-out: Mtb H37Rv MIC (B)
  MIC: 0.08 µM
[2]; read-out: measured MIC (breakdown), for 1 strain (EXAMPLE 2 and EXAMPLE 4), highest MIC
  MIC: 0.16 µM
[2]; read-out: measured MIC (breakdown), for 1 strain of 40 clinical isolates (lowest MIC, EXAMPLE 4)
  MIC: ≤ 0.2 µM
[2]; read-out: measured MIC (breakdown), for 40 strains (EXAMPLE 2 and EXAMPLE 4)
  MIC: 0.08 µM
[2]; strain 3, sensitive clinical isolate
  MIC: 0.04 µM
[2]; strain 52, sensitive clinical isolate
  MIC: 0.08 µM
[2]; strain 137, sensitive clinical isolate
  MIC: 0.08 µM
[2]; strain 161, sensitive clinical isolate
  MIC: 0.31 µM
[2]; strain 169, sensitive clinical isolate
  MIC: 0.08 µM
[2]; strain 192, sensitive clinical isolate
  MIC: 0.08 µM
[2]; strain 199, sensitive clinical isolate
  MIC: 0.08 µM
[2]; strain 206, sensitive clinical isolate
  MIC: 0.08 µM
[2]; strain 207, sensitive clinical isolate
  MIC: 0.08 µM
[2]; strain 208, sensitive clinical isolate
  MIC: 0.08 µM
[2]; strain 223, sensitive clinical isolate
  MIC: 0.08 µM
[2]; strain 231, sensitive clinical isolate
  MIC: 0.08 µM
[2]; strain 237, sensitive clinical isolate
  MIC: 0.08 µM
[2]; strain 247, sensitive clinical isolate
  MIC: 0.08 µM
[2]; strain 248, sensitive clinical isolate
  MIC: 0.08 µM
[2]; strain 249, sensitive clinical isolate
  MIC: 0.08 µM
[2]; strain 250, sensitive clinical isolate
  MIC: 0.08 µM
[2]; strain 253, sensitive clinical isolate
  MIC: 0.08 µM
[2]; strain 255, sensitive clinical isolate
  MIC: 0.08 µM
[2]; strain 256, sensitive clinical isolate
  MIC: 0.08 µM
[2]; strain 257, sensitive clinical isolate
  MIC: 0.08 µM
[2]; strain 261, sensitive clinical isolate
  MIC: 0.08 µM
[2]; strain 265, sensitive clinical isolate
  MIC: 0.08 µM
[2]; strain 267, sensitive clinical isolate
  MIC: 0.08 µM
[2]; strain 269, sensitive clinical isolate
  MIC: 0.08 µM
[2]; strain 274, sensitive clinical isolate
  MIC: 0.16 µM
[2]; strain 281, sensitive clinical isolate
  MIC: 0.08 µM
[2]; strain 292, sensitive clinical isolate
  MIC: 0.08 µM
[2]; strain 296, sensitive clinical isolate
  MIC: 0.08 µM
[2]; strain 311, sensitive clinical isolate
  MIC: 0.08 µM
[2]; strain 314, sensitive clinical isolate
  MIC: 0.08 µM
[2]; strain 316, sensitive clinical isolate
  MIC: 0.08 µM
[2]; strain 317, sensitive clinical isolate
  MIC: 0.08 µM
[2]; strain 322, sensitive clinical isolate
  MIC: 0.08 µM
[2]; strain 323, sensitive clinical isolate
  MIC: 0.08 µM
[2]; strain 324, sensitive clinical isolate
  MIC: 0.08 µM
[2]; strain 325, sensitive clinical isolate
  MIC: 0.16 µM
[2]; strain 326, sensitive clinical isolate
  MIC: 0.08 µM
[2]; strain 327, sensitive clinical isolate
  MIC: 0.08 µM
[2]; strain 328, sensitive clinical isolate
  MIC: 0.08 µM
[2]; strain 329, sensitive clinical isolate
  MIC: 0.08 µM
[2]; strain 332, sensitive clinical isolate
  MIC: 0.08 µM
[2]; strain 333, sensitive clinical isolate
  MIC: 0.08 µM
[2]; strain 337, sensitive clinical isolate
  MIC: 0.08 µM
[2]; strain 356, sensitive clinical isolate
  MIC: 0.04 µM
[2]; strain 357, sensitive clinical isolate
  MIC: 0.04 µM
[2]; strain 358, sensitive clinical isolate
  MIC: 0.08 µM
[2]; strain 361, sensitive clinical isolate
  MIC: 0.08 µM
[2]; strain 362, sensitive clinical isolate
  MIC: 0.04 µM
[2]; strain 370, sensitive clinical isolate
  MIC: 0.04 µM
[2]; strain 371, sensitive clinical isolate
  MIC: 0.08 µM
[2]; strain 374, sensitive clinical isolate
  MIC: 0.08 µM
[2]; strain 385, sensitive clinical isolate
  MIC: 0.08 µM
[2]; strain 391, sensitive clinical isolate
  MIC: 0.08 µM
[2]; strain 424, sensitive clinical isolate
  MIC: 0.08 µM
[2]; strain 440, sensitive clinical isolate
  MIC: 0.08 µM
[2]; strain 442, sensitive clinical isolate
  MIC: 0.08 µM
[2]; strain 457, sensitive clinical isolate
  MIC: 0.04 µM
[2]; strain 460, sensitive clinical isolate
  MIC: 0.08 µM
[2]; strain 481, sensitive clinical isolate
  MIC: 0.08 µM
[2]; strain 705, sensitive clinical isolate
  MIC: 0.16 µM
[2]; strain 716, sensitive clinical isolate
  MIC: 0.08 µM
[2]; strain 729, sensitive clinical isolate
  MIC: 0.08 µM
[2]; strain 730, sensitive clinical isolate
  MIC: 0.08 µM
[2]; strain 731, sensitive clinical isolate
  MIC: 0.08 µM
[2]; strain 733, sensitive clinical isolate
  MIC: 0.08 µM
[2]; strain 734, sensitive clinical isolate
  MIC: 0.08 µM
[2]; strain 736, sensitive clinical isolate
  MIC: 0.08 µM
[2]; strain 737, sensitive clinical isolate
  MIC: 0.08 µM
E. coli K12 tolC::Tn10
  MIC: E. coli K12 tolC::Tn10: 64 µg/mL
E. coli K12
  MIC: E. coli K12: 64 µg/mL
A. baumannii ATCC 17978
  MIC: A. baumannii ATCC 17978: 64 µg/mL
P. aeruginosa PA01
  MIC: P. aeruginosa PA01: 64 µg/mL
Mtb LeuRS
  pIC50: 6.83
HepG2 cells
  HepG2 cell 48 h Tox50 (A): >1000 µM

## CCOc1ccc(Cl)c2c1B(O)O[C@@H]2CN [Example C6-Cl, reference compound]
[1]; [3]
  MIC: 0.1 µM (≈ 0.0241 µg/mL)
E. coli K12 tolC::Tn10
  MIC: E. coli K12 tolC::Tn10: 64 µg/mL (≈ 265 µM)
E. coli K12
  MIC: E. coli K12: 64 µg/mL (≈ 265 µM)
A. baumannii ATCC 17978
  MIC: A. baumannii ATCC 17978: 64 µg/mL (≈ 265 µM)
P. aeruginosa PA01
  MIC: P. aeruginosa PA01: 64 µg/mL (≈ 265 µM)
Human cyto LeuRS
  pIC50: 4.41
HepG2 cells
  Selectivity Index (A/B): 363
  HepG2 cell 48 h Tox50 (A): 36.3 µM

## CCOc1ccc(Br)c2c1B(O)O[C@@H]2CN [Example C4-Br, reference compound]
[1]; [3]
  MIC: 0.1 µM (≈ 0.0286 µg/mL)
E. coli K12 tolC::Tn10
  MIC: E. coli K12 tolC::Tn10: 64 µg/mL (≈ 224 µM)
E. coli K12
  MIC: E. coli K12: 64 µg/mL (≈ 224 µM)
A. baumannii ATCC 17978
  MIC: A. baumannii ATCC 17978: 64 µg/mL (≈ 224 µM)
P. aeruginosa PA01
  MIC: P. aeruginosa PA01: 64 µg/mL (≈ 224 µM)
Human cyto LeuRS
  pIC50: 4.17
HepG2 cells
  Selectivity Index (A/B): 320
  HepG2 cell 48 h Tox50 (A): 32 µM
